# Values quoted from earlier work in US20070224292A1, “Extended effect ergogenic drink” (priority 2006, published 2007).
# Like-named read-outs stand apart in the source and are kept apart here.
# Legend:
# [1] = first fifteen minutes of exercise
# [2] = visual monitoring test simulating night driving
# [3] = during exercise in normal subjects
# [4] = after two hours; males (but not females)
# [5] = 200 to 400 mcg chromium three times per day, polynicotinate or picolinate form
# [6] = three women; 1 mg chromium with 100 mg vitamin C versus 1 mg chromium without vitamin C
# [7] = animals; given at the same time as vitamin C
# [8] = for time to reach peak serum concentrations: following ingestion
# [9] = immediate-release nicotinic acid
# [10] = in vivo
compound,measurement,setting,value
Cn1c(=O)c2c(ncn2C)n(C)c1=O [Caffeine],time to reach peak levels in the bloodstream,absorbed through stomach and small intestine,15 to 45 min
same,"half-life, women taking oral contraceptives",women taking oral contraceptives,up to 12 hours
same,reduction of the loss of glycogen,[1],fifty
same,effect on attention lapses,[2],prevent attention lapses
same,circulating free fatty acids and glycerol,[3],increase circulating free fatty acids and glycerol
same,CNS stimulation compared to placebo,[4],lower CNS (Central Nervous System) stimulation
[Cr] [Chromium],effect on insulin sensitivity,[5],improve insulin sensitivity
same,plasma levels of chromium,[6],higher plasma levels of chromium
same,chromium uptake,[7],enhanced
"O=C(O)c1cccnc1 [Niacin, Nicotinic acid]",time to reach peak serum concentrations,[8]; extended-release form,4 to 5 h
same,half-life,[8]; immediate release Niacin,approximately 1 hour
same,time to reach peak serum concentrations,[8]; immediate-release or crystalline form,approximately 45 minutes
same,duration of flushing,[9],up to one
same,time to onset of flushing following ingestion,[9],≤ 20 min
Chromium Polynicotinate,effect on blood lipid levels,[10],lower blood lipid levels
